The results in this text go back to patent US20250228882A1, “ORALLY-BIOAVAILABLE NUCLEOSIDE ANALOGS” (Venatorx Pharmaceuticals, Inc., priority 2022, published 2025).

The series in a line: Bidirectional Caco-2 permeability assay. Format: in vitro ADME. Particulars: human. How it is done: The bidirectional permeability of compounds across the Caco-2 cell monolayer was assessed. The Caco-2 model is a widely used in vitro model for small intestinal absorption and potential for efflux. Cell culture. Caco-2 cells were grown in DMEM supplemented with 10% fetal bovine serum (FBS), 1% Penicillin-Streptomycin and 1% MEMNEAA. The cells were incubated at 37° C., 5% CO2/95% air and saturated humidity. After reaching 80-90% confluency, the cells were gently detached with trypsin. Cells at passage 39 were seeded on the 24-well BD insert system at the density of 8×10^4 cells/cm^2 and cultured for 19 days with medium changed every 2-3 days. Measure the transepithelial electrical resistance (TEER) value of each well. The wells can be used only when their TEER values are greater than 600 Ohms/cm^2.
Transport assay. After removing the cell culture medium from the 24-well insert plate, the cells were rinsed with warm transport buffer. Appropriate dosing and receiving solutions were applied to the donor and receiver chambers to initiate the transport assay in apical to basolateral (A to B) or basolateral to apical (B to A) directions (500 and 1300 μL for apical and basolateral wells, respectively). Duplicate wells in each direction were used for the test compound and control compound. The plate was incubated in CO2 incubator at 37° C., with 5% CO2/95% air and saturated humidity without shaking. The sample after 10-minute incubation was used as the To sample, and the sample after 90-minute incubation was used as the T90 sample. To and T90 samples were collected from the donor and receiver side of each well at the designed timepoint, mixed with the transport buffer and acetonitrile/MeOH (1:1, v/v) and the internal standard for LC/MS/MS analysis. All samples were vortexed and centrifuged at 4000 rpm at 4° C. for 15 minutes, diluted with pure water and stored at 4° C. before bioanalysis by LC/MS/MS.
Sample analysis. The concentrations of test compounds and control compounds in Caco-2 cells were quantitatively determined by LC/MS/MS method after protein precipitation.
Calculations. The apparent permeability (Papp, cm/s), efflux ratio (ER) and recovery parameters were calculated for Caco-2 drug transport assay using the following equations: […]
where VR is the solution volume in the receiver chamber (0.4 mL on the apical side, 1.2 mL on the basolateral side); Area is the surface area for the insert membrane, i.e., 0.3 cm^2 for the area of the monolayer; Time is incubation time, expressed in seconds, i. e., 5400 s (90 min) for the current experiment; Co is the initial concentration of test compound or peak area ratio of control compounds in the donor chamber (M); VD is the volume in the donor chambers (0.4 mL on the apical side, 1.2 mL on the basolateral side); CD and CR are the final concentrations of test compounds or peak area ratio of control compounds in donor and receiver chambers, respectively.
Compounds with Papp<1.0 are classified as low permeability, Papp between 1-10 are classified as medium permeability, and Papp>10 are classified as high permeability. An efflux ratio (ER)>2 indicates the compounds are potential substrates for intestinal cell efflux transporters.

The mark [1] stands for this setting: Caco-2 monolayer, apical to basolateral, 90-minute incubation, read-out: Papp, A-B.
Where [2] appears, read: Caco-2 monolayer, basolateral to apical, 90-minute incubation, read-out: Papp, B-A.
The mark [3] stands for this setting: Caco-2 monolayer, ER>2 indicates potential efflux substrate, read-out: ER (efflux ratio).

Read-outs that look alike come from different tables or passages of the source.

As to `CC(C)NC(=O)Nc1ncnn2c([C@]3(C#N)O[C@H](COC(=O)CC4CCCCC4)[C@@H](OC(=O)[C@@H](N)C(C)(C)C)[C@H]3O)ccc12` [Compound 4, (2R,3S,4R,5R)-5-cyano-2-((2-cyclohexylacetoxy)methyl)-4-hydroxy-5-(4-(3-isopropylureido)pyrrolo[2,1-f][1,2,4]triazin-7-yl)tetrahydrofuran-3-yl (S)-2-amino-3,3-dimethylbutanoate], under “Caco-2”, the apical-to-basolateral permeability (Papp A→B) (commonly how fast a substance crosses the layer from the apical side) at 90 min came out at 2.5 ×10⁻⁶ cm/s; the Papp B→A (as a rule, how fast a substance crosses the layer from the basolateral side) at 90 min came to 3.48 ×10⁻⁶ cm/s; the efflux ratio at 90 min came out at 1.37.

For the molecule `COC(C)(C)C(=O)Nc1ncnn2c([C@]3(C#N)O[C@H](COC(=O)Cc4ccccc4)[C@@H](OC(=O)[C@@H](N)C(C)(C)C)[C@H]3O)ccc12` [Compound 5, (2R,3S,4R,5R)-5-cyano-4-hydroxy-5-(4-(2-methoxy-2-methylpropanamido)pyrrolo[2,1-f][1,2,4]triazin-7-yl)-2-((2-phenylacetoxy)methyl)tetrahydrofuran-3-yl (S)-2-amino-3,3-dimethylbutanoate], the apparent permeability from apical to basolateral (Papp A→B) at 90 min under setting [1] was 17.7 ×10⁻⁶ cm/s. For the same molecule, the basolateral-to-apical permeability (Papp B→A) at 90 min under setting [2] was 16.5 ×10⁻⁶ cm/s. In addition, under setting [3], the efflux ratio at 90 min was found to be 0.93.

As to `CCOC(C)(C)C(=O)Nc1ncnn2c([C@]3(C#N)O[C@H](COC(=O)Cc4ccccc4)[C@@H](OC(=O)[C@@H](N)C(C)(C)C)[C@H]3O)ccc12` [Compound 6, (2R,3S,4R,5R)-5-cyano-5-(4-(2-ethoxy-2-methylpropanamido)pyrrolo[2,1-f][1,2,4]triazin-7-yl)-4-hydroxy-2-((2-phenylacetoxy)methyl)tetrahydrofuran-3-yl (S)-2-amino-3,3-dimethylbutanoate], under setting [1], the apparent permeability from apical to basolateral (Papp A→B) at 90 min came out at 14 ×10⁻⁶ cm/s. For the same molecule, the Papp B→A at 90 min under setting [2] was 15.4 ×10⁻⁶ cm/s. The efflux ratio at 90 min under setting [3] came out at 1.1.

With `CCOC(C)(C)C(=O)Nc1ncnn2c([C@]3(C#N)O[C@H](COC(=O)CC4CCCCC4)[C@@H](OC(=O)[C@@H](N)C(C)(C)C)[C@H]3O)ccc12` [Compound 7, (2R,3S,4R,5R)-5-cyano-2-((2-cyclohexylacetoxy)methyl)-5-(4-(2-ethoxy-2-methylpropanamido)pyrrolo[2,1-f][1,2,4]triazin-7-yl)-4-hydroxytetrahydrofuran-3-yl (S)-2-amino-3,3-dimethylbutanoate], for the setting “Caco-2”, the apparent permeability from apical to basolateral (Papp A→B) at 90 min was 7.82 ×10⁻⁶ cm/s, the Papp B→A at 90 min is 8.41 ×10⁻⁶ cm/s and the efflux ratio at 90 min was 1.07.

Consider `CCC(CC)C(=O)Nc1ncnn2c([C@]3(C#N)O[C@H](COC(=O)Cc4ccccc4)[C@@H](OC(=O)[C@@H](N)C(C)(C)C)[C@H]3O)ccc12` [Compound 8, (2R,3S,4R,5R)-5-cyano-5-(4-(2-ethylbutanamido)pyrrolo[2,1-f][1,2,4]triazin-7-yl)-4-hydroxy-2-((2-phenylacetoxy)methyl)tetrahydrofuran-3-yl (S)-2-amino-3,3-dimethylbutanoate], for which the apical-to-basolateral permeability (Papp A→B) at 90 min under setting [1] turned out to be 0.52 ×10⁻⁶ cm/s. Under setting [2], the Papp B→A at 90 min was found to be 0.13 ×10⁻⁶ cm/s. For the same molecule, the efflux ratio at 90 min under setting [3] turned out to be 0.26.

As for `CC[C@H](C)C(=O)Nc1ncnn2c([C@]3(C#N)O[C@H](COC(=O)Cc4ccccc4)[C@@H](OC(=O)[C@@H](N)C(C)(C)C)[C@H]3O)ccc12` [Compound 10, (2R,3S,4R,5R)-5-cyano-4-hydroxy-5-(4-((S)-2-methylbutanamido)pyrrolo[2,1-f][1,2,4]triazin-7-yl)-2-((2-phenylacetoxy)methyl)tetrahydrofuran-3-yl (S)-2-amino-3,3-dimethylbutanoate], the apparent permeability from apical to basolateral (Papp A→B) at 90 min under setting [1] is 0.59 ×10⁻⁶ cm/s. In addition, the basolateral-to-apical permeability (Papp B→A) at 90 min under setting [2] was determined as 0.1 ×10⁻⁶ cm/s. For the same molecule, the efflux ratio at 90 min under setting [3] was 0.17.

Turning to `CC[C@@H](C)C(=O)Nc1ncnn2c([C@]3(C#N)O[C@H](COC(=O)CC4CCCCC4)[C@@H](OC(=O)[C@@H](N)C(C)(C)C)[C@H]3O)ccc12` [Compound 12, (2R,3S,4R,5R)-5-cyano-2-((2-cyclohexylacetoxy)methyl)-4-hydroxy-5-(4-((R)-2-methylbutanamido)pyrrolo[2,1-f][1,2,4]triazin-7-yl)tetrahydrofuran-3-yl (S)-2-amino-3,3-dimethylbutanoate], where the note is “Caco-2”, the Papp A→B at 90 min was found to be 3.48 ×10⁻⁶ cm/s, the Papp B→A at 90 min turned out to be 25.5 ×10⁻⁶ cm/s and the efflux ratio at 90 min was 7.34.

Consider `CC[C@H](C)C(=O)Nc1ncnn2c([C@]3(C#N)O[C@H](COC(=O)CC4CCCCC4)[C@@H](OC(=O)[C@@H](N)C(C)(C)C)[C@H]3O)ccc12` [Compound 13, (2R,3S,4R,5R)-5-cyano-2-((2-cyclohexylacetoxy)methyl)-4-hydroxy-5-(4-((S)-2-methylbutanamido)pyrrolo[2,1-f][1,2,4]triazin-7-yl)tetrahydrofuran-3-yl (S)-2-amino-3,3-dimethylbutanoate], for which, where the note is “Caco-2”, the apparent permeability from apical to basolateral (Papp A→B) at 90 min worked out at 3.16 ×10⁻⁶ cm/s, the apparent permeability from basolateral to apical (Papp B→A) at 90 min was 30.5 ×10⁻⁶ cm/s and the efflux ratio at 90 min stood at 9.68.

With `CC(C)[C@@H](C)C(=O)Nc1ncnn2c([C@]3(C#N)O[C@H](COC(=O)CC4CCCCC4)[C@@H](OC(=O)[C@@H](N)C(C)(C)C)[C@H]3O)ccc12` [Compound 14, (2R,3S,4R,5R)-5-cyano-2-((2-cyclohexylacetoxy)methyl)-5-(4-((R)-2,3-dimethylbutanamido)pyrrolo[2,1-f][1,2,4]triazin-7-yl)-4-hydroxytetrahydrofuran-3-yl (S)-2-amino-3,3-dimethylbutanoate], under “Caco-2”, the apical-to-basolateral permeability (Papp A→B) at 90 min was 1.96 ×10⁻⁶ cm/s, the basolateral-to-apical permeability (Papp B→A) at 90 min is 1.38 ×10⁻⁶ cm/s and the efflux ratio at 90 min stood at 0.7.

On to `CC(C)[C@H](C)C(=O)Nc1ncnn2c([C@]3(C#N)O[C@H](COC(=O)CC4CCCCC4)[C@@H](OC(=O)[C@@H](N)C(C)(C)C)[C@H]3O)ccc12` [Compound 15, (2R,3S,4R,5R)-5-cyano-2-((2-cyclohexylacetoxy)methyl)-5-(4-((S)-2,3-dimethylbutanamido)pyrrolo[2,1-f][1,2,4]triazin-7-yl)-4-hydroxytetrahydrofuran-3-yl (S)-2-amino-3,3-dimethylbutanoate], for which, under “Caco-2”, the apparent permeability from apical to basolateral (Papp A→B) at 90 min came to 1.93 ×10⁻⁶ cm/s, the basolateral-to-apical permeability (Papp B→A) at 90 min turned out to be 1.76 ×10⁻⁶ cm/s and the efflux ratio at 90 min was determined as 0.91.

For the molecule `CC(C)[C@@H](C)C(=O)Nc1ncnn2c([C@]3(C#N)O[C@H](COC(=O)Cc4ccccc4)[C@@H](OC(=O)[C@@H](N)C(C)(C)C)[C@H]3O)ccc12` [Compound 21, (2R,3S,4R,5R)-5-cyano-5-(4-((R)-2,3-dimethylbutanamido)pyrrolo[2,1-f][1,2,4]triazin-7-yl)-4-hydroxy-2-((2-phenylacetoxy)methyl)tetrahydrofuran-3-yl (S)-2-amino-3,3-dimethylbutanoate], the apparent permeability from apical to basolateral (Papp A→B) at 90 min under setting [1] worked out at 3.1 ×10⁻⁶ cm/s. Moreover, the Papp B→A at 90 min under setting [2] was 21 ×10⁻⁶ cm/s. In addition, under setting [3], the efflux ratio at 90 min amounted to 6.77.

For the molecule `CC(C)[C@H](C)C(=O)Nc1ncnn2c([C@]3(C#N)O[C@H](COC(=O)Cc4ccccc4)[C@@H](OC(=O)[C@@H](N)C(C)(C)C)[C@H]3O)ccc12` [Compound 22, (2R,3S,4R,5R)-5-cyano-5-(4-((S)-2,3-dimethylbutanamido)pyrrolo[2,1-f][1,2,4]triazin-7-yl)-4-hydroxy-2-((2-phenylacetoxy)methyl)tetrahydrofuran-3-yl (S)-2-amino-3,3-dimethylbutanoate], under setting [1], the Papp A→B at 90 min turned out to be 2.79 ×10⁻⁶ cm/s. In addition, the basolateral-to-apical permeability (Papp B→A) at 90 min under setting [2] came out at 6.1 ×10⁻⁶ cm/s. Further, the efflux ratio at 90 min under setting [3] is 2.19.
